From patent US10611740B2, “Aryl dihydro-2H-benzo[b][1,4]oxazine sulfonamide and related compounds for use as agonists of RORγ and the treatment of disease” (Lycera Corporation, priority 2015, dated 2020)

Molecular target: T1, Gal4-RORγ-LBD (Homo sapiens, UniProt P51449)
T1 construct: expressed in transfected cells; host or cells: HEK-293 cells (pcDNA3.1neo plasmid)
T1 sequence (P51449 269-508 limits assumed): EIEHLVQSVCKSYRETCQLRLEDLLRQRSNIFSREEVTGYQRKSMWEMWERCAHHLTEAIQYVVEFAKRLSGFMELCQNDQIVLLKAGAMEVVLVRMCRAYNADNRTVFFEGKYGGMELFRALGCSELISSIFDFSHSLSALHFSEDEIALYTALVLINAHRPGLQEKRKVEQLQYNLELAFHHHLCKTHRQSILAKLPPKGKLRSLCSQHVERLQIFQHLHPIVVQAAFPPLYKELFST
Assay: Gal4-RORγ Luciferase Reporter Assay in HEK-293T Cells
Assay type: cell-based
Conditions: HEK-293 cells
Procedure: Assay procedures and results are described below.
In the following protocol, HEK-293 cells were transfected with a construct comprising the Gal4 DNA binding domain fused to the ligand binding domain of RORγ (Gal4-RORγ-LBD) in a pcDNA3.1neo plasmid, and also with a reporter construct comprising pGL4.31 Gal4-luciferase (Promega). Control cells were prepared similarly using empty pcDNA3.1neo and pGL4.31 vectors.
Trans-IT reagent (Mirus, 60 μL) at room temperature was added drop wise to OptiMEM (Invitrogen, 1.5 ml). This reagent mixture was mixed by inversion then incubated for 5 to 30 minutes at room temperature. It then was added to a solution of both expression vectors (5 μg each), mixed, and incubated at room temperature for about 20 minutes. HEK-293 cells were harvested from incubation flasks by removing the media, treating with TrypLE Express (Invitrogen), and incubating until the cells detached from the bottom of the flask (approximately 2-5 minutes). 10 Million cells were collected by centrifugation and re-suspended in 10 mL of Dulbecco's Modified Eagle Medium, High Glucose (DMEM, Invitrogen) containing 10% Fetal Bovine Serum and 100 IU each of penicillin and streptomycin. The re-suspended cells and the transfection mixture were added to a T75 flask, mixed and incubated overnight at 37° C. and 5% CO2.
The cells were harvested as described above, counted, and centrifuged to obtain the desired number of cells, then re-suspended in complete growth media at 0.75×10^6 cells/mL. The RORγ antagonist, ursolic acid, was added to the cells at a final concentration of 2 μM. Cells were plated at 20 μL of cell suspension/well (10,000-15,000 cells/well) in white tissue culture treated 384 well plates. Test compounds were dissolved at 10 mM in DMSO then diluted into complete growth medium to 5× the final intended test concentration. These drug stock solutions, 5 μL/well were added to the tissue culture plate. The final DMSO concentration was 0.2%. The plates were briefly centrifuged then incubated overnight at 37° C. and 5% CO2. To conduct the assay, the tissue culture plates were allowed to equilibrate to room temperature and One-Glo luciferase reagent (Promega, 25 μL/well) was added. The plates were briefly centrifuged then incubated at room temperature for 10 minutes. The luciferase intensity was read on an Envision plate reader (Perkin Elmer). […] The luciferase signal in the absence of ursolic acid or test compound is defined at 100. The Max Response is the upper plateau in the signal as determined by line-fit using a 4-parameter logistic model in PRISM (GraphPad).

[1] = luciferase reporter, with 2 μM ursolic acid

SMILES	EC50 [1] [nM]	Gal4-RORγ Assay Max Response [1]	EC50 (2 μM ursolic acid) [nM]	Gal4-RORγ Assay Max Response (2 μM ursolic acid)
COc1ccnc(-c2ccc3c(c2)N(S(=O)(=O)c2cccc(C(F)(F)F)c2)C[C@H](CCC(=O)O)O3)n1 [Compound 4C, (S)-3-(6-(4-methoxypyrimidin-2-yl)-4-((3-(trifluoromethyl)-phenyl)sulfonyl)-3,4-dihydro-2H-benzo[b][1,4]oxazin-2-yl)propanoic acid]	500 to 5000	** (The symbol “**” indicates a value in the range of greater than 90 to 150)	–	–
O=C(O)CC[C@H]1CN(S(=O)(=O)c2cccc(C(F)(F)F)c2)c2cc(-c3cc(F)cc(F)c3)c(Cl)cc2O1 [Compound 22L, (S)-3-(7-chloro-6-(3,5-difluoro-phenyl)-4-((3-(trifluoromethyl)-phenyl)sulfonyl)-3,4-dihydro-2H-benzo[b][1,4]oxazin-2-yl)propanoic acid]	–	–	< 500	** (The symbol “**” indicates a value in the range of greater than 90 to 150)
COc1cc(S(=O)(=O)N2C[C@H](CNC(=O)C(C)(C)O)Oc3ccc(-c4cccc(C(F)(F)F)n4)cc32)ccc1F [Compound 30T, (S)-N-((4-((4-fluoro-3-methoxyphenyl)sulfonyl)-6-(6-(trifluoromethyl)pyridin-2-yl)-3,4-dihydro-2H-benzo[b][1,4]oxazin-2-yl)methyl)-2-hydroxy-2-methylpropanamide]	< 500	* (The symbol “*” indicates a value in the range of 25 to 90)	–	–
CC(C)c1cccc(S(=O)(=O)N2C[C@H](CC(C)(C)C(=O)O)Oc3ccc(-c4cc(F)ccc4F)cc32)c1 [Compound 32M, (S)-3-(6-(2,5-difluorophenyl)-4-((3-isopropylphenyl)sulfonyl)-3,4-dihydro-2H-benzo[b][1,4]oxazin-2-yl)-2,2-dimethylpropanoic acid]	500 to 5000	** (The symbol “**” indicates a value in the range of greater than 90 to 150)	–	–
COc1cc(S(=O)(=O)N2C[C@H](CNS(=O)(=O)N3CCCC3)Oc3ccc(-c4cc(F)ccc4F)cc32)ccc1F [Compound 45F, (S)-N-((6-(2,5-difluorophenyl)-4-((4-fluoro-3-methoxyphenyl)sulfonyl)-3,4-dihydro-2H-benzo[b][1,4]oxazin-2-yl)methyl)pyrrolidine-1-sulfonamide]	–	–	< 500	–
O=C(O)C1(C[C@H]2CN(S(=O)(=O)c3cc(F)cc(C(F)(F)F)c3)c3cc(-c4cc(F)ccc4F)ccc3O2)COC1 [Compound 51G, (S)-3-((6-(2,5-difluorophenyl)-4-((3-fluoro-5-(trifluoromethyl)-phenyl)sulfonyl)-3,4-dihydro-2H-benzo[b][1,4]oxazin-2-yl)methyl)oxetane-3-carboxylic acid]	–	–	< 500	** (The symbol “**” indicates a value in the range of greater than 90 to 150)
O=C(O)C1(C[C@H]2CN(S(=O)(=O)c3cccc(C(F)F)c3)c3cc(-c4cc(F)ccc4F)ccc3O2)COC1 [Compound 51H, (S)-3-((4-((3-(difluoromethyl)-phenyl)sulfonyl)-6-(2,5-difluorophenyl)-3,4-dihydro-2H-benzo[b][1,4]oxazin-2-yl)methyl)oxetane-3-carboxylic acid]	–	–	500 to 5000	** (The symbol “**” indicates a value in the range of greater than 90 to 150)
O=C(O)C1(C[C@H]2CN(S(=O)(=O)c3cc(F)cc(C(F)(F)F)c3)c3cc(-c4cc(F)cc(OC(F)F)c4)ccc3O2)COC1 [Compound 51I, (S)-3-((6-(3-(difluoromethoxy)-5-fluorophenyl)-4-((3-fluoro-5-(trifluoromethyl)phenyl)sulfonyl)-3,4-dihydro-2H-benzo[b][1,4]-oxazin-2-yl)methyl)oxetane-3-carboxylic acid]	–	–	< 500	* (The symbol “*” indicates a value in the range of 25 to 90)
O=C(O)C1(C[C@H]2CN(S(=O)(=O)c3cccc(C(F)F)c3)c3cc(-c4cc(F)cc(OC(F)F)c4)ccc3O2)COC1 [Compound 51J, (S)-3-((6-(3-(difluoromethoxy)-5-fluorophenyl)-4-((3-(difluoro-methyl)phenyl)sulfonyl)-3,4-dihydro-2H-benzo[b][1,4]oxazin-2-yl)methyl)oxetane-3-carboxylic acid]	–	–	< 500	** (The symbol “**” indicates a value in the range of greater than 90 to 150)
O=C(O)C1(C[C@H]2CN(S(=O)(=O)c3cncc(C(F)(F)F)c3)c3cc(-c4cc(F)ccc4F)ccc3O2)COC1 [Compound 51K, (S)-3-((6-(2,5-difluorophenyl)-4-((5-(trifluoromethyl)pyridin-3-yl)sulfonyl)-3,4-dihydro-2H-benzo[b][1,4]oxazin-2-yl)methyl)oxetane-3-carboxylic acid]	–	–	500 to 5000	*** (The symbol “***” indicates a value in the range of greater than 150 to 200)
O=C(O)C1(C[C@H]2CN(S(=O)(=O)c3cncc(C(F)(F)F)c3)c3cc(-c4cc(F)cc(OC(F)F)c4)ccc3O2)COC1 [Compound 51L, (S)-3-((6-(3-(difluoromethoxy)-5-fluorophenyl)-4-((5-(trifluoro-methyl)pyridin-3-yl)sulfonyl)-3,4-dihydro-2H-benzo[b][1,4]oxazin-2-yl)methyl)oxetane-3-carboxylic acid]	–	–	< 500	** (The symbol “**” indicates a value in the range of greater than 90 to 150)
C[C@]1(C(=O)O)C[C@H](C[C@H]2CN(S(=O)(=O)c3cccc(C(F)(F)F)c3)c3cc(-c4cc(F)cc(F)c4Cl)ccc3O2)C1 [Compound 60F, (1S,3r)-3-(((S)-6-(2-chloro-3,5-difluorophenyl)-4-((3-(trifluoro-methyl)phenyl)sulfonyl)-3,4-dihydro-2H-benzo[b][1,4]oxazin-2-yl)methyl)-1-methylcyclo-butane-1-carboxylic acid]	–	–	< 500	** (The symbol “**” indicates a value in the range of greater than 90 to 150)
CC1(C(=O)O)CC(C[C@H]2CN(S(=O)(=O)c3cccc(C(F)(F)F)c3)c3cc(-c4cc(F)cc(F)c4Cl)ccc3O2)C1 (stereo partly drawn) [Compound 60G, (1R,3s)-3-(((S)-6-(2-chloro-3,5-difluorophenyl)-4-((3-(trifluoro-methyl)phenyl)sulfonyl)-3,4-dihydro-2H-benzo[b][1,4]oxazin-2-yl)methyl)-1-methylcyclo-butane-1-carboxylic acid]	–	–	< 500	*** (The symbol “***” indicates a value in the range of greater than 150 to 200)
CC(=O)N[C@H]1C[C@@H]([C@H]2CN(S(=O)(=O)c3cccc(C(F)(F)F)c3)c3cc(-c4cc(F)ccc4F)ccc3O2)C1 [Compound 60L, N-((1R,3s)-3-((S)-6-(2,5-difluorophenyl)-4-((3-(trifluoro-methyl)phenyl)sulfonyl)-3,4-dihydro-2H-benzo[b][1,4]-oxazin-2-yl)cyclobutyl)-acetamide]	–	–	< 500	** (The symbol “**” indicates a value in the range of greater than 90 to 150)
CC(=O)N[C@H]1C[C@H]([C@H]2CN(S(=O)(=O)c3cccc(C(F)(F)F)c3)c3cc(-c4cc(F)ccc4F)ccc3O2)C1 [Compound 60M, N-((1S,3r)-3-((S)-6-(2,5-difluorophenyl)-4-((3-(trifluoro-methyl)phenyl)sulfonyl)-3,4-dihydro-2H-benzo[b][1,4]-oxazin-2-yl)cyclobutyl)-acetamide]	–	–	< 500	** (The symbol “**” indicates a value in the range of greater than 90 to 150)
O=C(O)[C@]1(C[C@H]2CN(S(=O)(=O)c3cccc(C(F)(F)F)c3)c3cc(-c4cc(F)cc(OC(F)F)c4)ccc3O2)C[C@@H](O)[C@@H](O)C1 [Compound 64, (1s,3R,4S)-1-(((S)-6-(3-(difluoromethoxy)-5-fluorophenyl)-4-((3-(trifluoromethyl)phenyl)sulfonyl)-3,4-dihydro-2H-benzo[b][1,4]oxazin-2-yl)methyl)-3,4-dihydroxycyclopentane-1-carboxylic acid]	–	–	500 to 5000	** (The symbol “**” indicates a value in the range of greater than 90 to 150)
